The values that follow come from US6265423A, “Aromatic polycyclic retinoid-type derivatives, method for preparing same, and use thereof for making pharmaceutical and cosmetic compositions” (priority 1996, dated 2001).

Assay [1] deals with A549 human pulmonary cancer cells. Briefly: MTT test, proliferation of A549. The assay is classed as cell-based. The note with it: for activity at 100 µM / activity at 1 µM / activity at 0.01 µM: Homo sapiens, 72 h, control = 100%, read-out: level of proliferation; for activity at 100 µM: A549, 10^-4 M; for activity at 1 µM: A549, 10^-6 M; for activity at 0.01 µM: A549, 10^-8 M. On the technique in general: Formazan colour is commonly taken as a measure of viable cells.

Assay [2] relates to ZR-75-1 human mammary cancer cells. In words: MTT test, proliferation of ZR-75-1. The assay is classed as cell-based. The note with it: for activity at 100 µM / activity at 1 µM / activity at 0.01 µM: Homo sapiens, 72 h, control = 100%, read-out: level of proliferation; for activity at 100 µM: ZR-75-1, 10^-4 M; for activity at 1 µM: ZR-75-1, 10^-6 M; for activity at 0.01 µM: ZR-75-1, 10^-8 M. Summed up: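 After 24 h seeding, cells in MEM with 5% decomplemented FCS at 37° C were exposed to compound at 10^-8 M, 10^-6 M and 10^-4 M. Viability was assessed by MTT reduction to formazan, dissolved in DMSO. Mean optical density is expressed as % of untreated control (100%), in 6 duplicates.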

For assay [3], the system named is ERE-βGlob-Luc, MELN lineage (MCF-7). Briefly: Anti-oestrogenic effect, MELN lineage activated by estradiol. The assay is classed as cell-based, human. The note with it: for inhibition: 10^-6 M; for anti-oestrogenic effect (in words): estradiol-activated MELN cells. Summed up: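 MCF-7-derived MELN cells stably carry luciferase driven by chicken vitellogenin A2 ERE and βGlobin promoter; stimulated with 10^-9 M estradiol, run in duplicate. Basal activity is set with 1 μM 4-OH-tamoxifen and subtracted. Effect expressed as percentage.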

The test system of assay [4] is AP-1, MTLN lineage (MCF-7). Briefly: Anti-AP-1 effect, MTLN lineage activated by TPA. The assay is classed as cell-based, human. The note with it: for inhibition at 1 µM / inhibition at 0.1 µM: Homo sapiens, MCF7, cells activated by 10^-7 M TPA, range of several experiments; for inhibition at 1 µM: 10^-6 M; for inhibition at 0.1 µM: 10^-7 M, read-out: anti-AP-1 effect, inhibition. Summed up:
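MCF-7-derived MTLN cells stably carrying a p(TRE)3-tk-Luc reporter, activated with 10^-7 M TPA, run in duplicate. Luciferase inhibition by compounds given as percentage after subtracting basal cell activity, reported as a range from several experiments.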

In the next assay the test system is T-47D cells. In words: Effect on oestrogen-induced proliferation of T-47D cells. The format is cell-based, human. The note with it: for activity at 1 µM: Homo sapiens, T47D, 168 h, 10^-6 M, 100% = E2 10^-9 M, 7 days, read-out: growth of T-47D cells.
Where [5] appears, read: Homo sapiens, MCF7, cells activated by 10^-9 M estradiol.

By inhibition is commonly meant the drop in the measured response relative to a control, in per cent. Turning to `C/C(=C/c1ccc2c(c1)C(C)(C)CCC2(C)C)c1ccc(-c2nnn[nH]2)cc1` [CB92834], in assay [1], the activity at 100 µM came to 14.4%, the activity at 1 µM is 109% and the activity at 0.01 µM was 105%. For the same molecule, the “effect on cellular increase, A549 (in words)” value in assay [1] (MTT test) is listed as “show activity on the increase of these two lineages”. Besides, in assay [2], the activity at 100 µM was 18.7%, the activity at 1 µM came out at 39.9% and the activity at 0.01 µM was found to be 27.9%. In assay [2] (MTT test), the “effect on cellular increase, ZR-75-1 (in words)” value is listed as “strongly inhibitive activity on the cellular increase of the two lineages”. For the same molecule, in assay [3] (setting [5]), the inhibition was 0%. Further, in assay [3], the “anti-oestrogenic effect (in words)” value is “inactive”. In assay [4], the inhibition at 1 µM lay in the range of 20 to 23% and the inhibition at 0.1 µM was in the range of 4 to 9%. The “anti-AP-1 effect (in words)” value in assay [4] (TPA-activated MTLN cells) was “anti-AP-1 molecules through RXR”. The activity at 1 µM in the assay on T-47D cells was determined as 94%. In addition, in the assay with T-47D cells (estradiol 10^-9 M), the “effect on oestrogen-induced growth, T-47D (in words)” value is “inactive on the oestrogen-induced growth”.

For the molecule `C/C(=C/c1ccc2c(c1)C(C)(C)CCC2(C)C)c1ccc(C(=O)O)cn1` [CB38416, (Z) 2-[1-(5,6,7,8-tetrahydro-5,5,8,8-tetramethyl-2-naphthalenyl)-2-propenyl]pyridinyl-5-carboxylic acid], in assay [1], the activity at 100 µM is 109%, the activity at 1 µM was determined as 105% and the activity at 0.01 µM was 126%. In addition, in assay [2], the activity at 100 µM turned out to be 55.8%, the activity at 1 µM was determined as 98.3% and the activity at 0.01 µM was found to be 122%. In assay [3] (setting [5]), the inhibition was 19%. Also, in assay [3] (Homo sapiens, MCF7, 10^-7 M, cells activated by 10^-9 M estradiol, read-out: anti-oestrogenic effect, inhibition), the inhibition at 0.1 µM came to 0%. Also, the “anti-oestrogenic effect (in words)” value in assay [3] was “permit a transrepression of a controlled gene by an ERE”. Besides, in assay [4], the inhibition at 1 µM fell in the range of 21 to 25% and the inhibition at 0.1 µM lay within 7 to 14%. Further, the activity at 1 µM with T-47D cells is 50 to 60%.
